Measured values from patent US20190048052A1, “ANTI-MICROBIAL PEPTIDES AND COATINGS” (Board of Regents of the University of Nebraska, priority 2016, published 2019).
Values after ≈ are worked out from the molar mass of the structure shown. Residues, ends and D or L forms follow the SMILES beside them.

Assays:
[1] = tested on: E. faecium ATCC51559; assay type: cell-based, Enterococcus faecium; settings: ATCC51559
Description: (§1) Bacterial strains used in this study included Enterococcus faecium ATCC51559, Staphylococcus aureus USA300 LAC, Klebsiella pneumoniae ATCC 13883, Acinetobacter baumannii B2367-12, Pseudomonas aeruginosa PAO1, Enterobacter cloacae B2366-12 and Escherichia coli ATCC 25922, wherein the first six constituting the ESKAPE pathogens. Tryptic soy broth (TSB) for bacterial growth was obtained from BD Bioscience (Sparks, Md.).
(§2) The antibacterial activity of peptides was evaluated using a standard broth microdilution protocol as described (Wang et al. (2012) Antimicrob. Agents Chemother., 56:845-856). In brief, 5 μl of each bacterium (stored at −80° C.) were inoculated into TSB medium (2 ml) and grown overnight. A second inoculation was made in the morning by delivering 10 μl of the overnight culture to a fresh TSB medium. After 2-3 hours growth at 37° C., 225 rpm, logarithmic phase bacterial cultures (OD600≈0.5) were diluted and partitioned into a 96-well polystyrene microplate with ˜10^5 colony forming units (CFU) per well (90 μl aliquots). After treatment with 10 μl of peptide solutions at various concentrations, microplates were incubated at 37° C. overnight and read on a ChroMate® 4300 Microplate Reader at 630 nm (GMI, Ramsey, Minn.). The medium was used as a blank where no bacteria should grow.

[2] = tested on: S. aureus USA300 LAC; assay type: cell-based, Staphylococcus aureus; settings: USA300
Description: as §1, §2

[3] = tested on: A. baumannii B2367-12; assay type: cell-based, Acinetobacter baumannii; settings: B2367-12
Description: as §1, §2

[4] = tested on: P. aeruginosa PAO1; assay type: cell-based, Pseudomonas aeruginosa
Description: as §1, §2

[5] = tested on: E. cloacae B2366-12; assay type: cell-based, Enterobacter cloacae; settings: B2366-12
Description: as §1, §2

[6] = tested on: E. coli ATCC 25922; assay type: cell-based, Escherichia coli; settings: ATCC 25922
Description: as §1, §2

[7] = tested on: ESKAPE pathogens; assay type: cell-based
Description: as §1, §2

SMILES: CC[C@H](C)[C@H](NC(=O)[C@H](CCCNC(=N)N)NC(=O)[C@H](CCC(N)=O)NC(=O)[C@@H](NC(=O)[C@@H](NC(=O)[C@H](CCCNC(=N)N)NC(=O)[C@H](CCCCN)NC(=O)[C@@H](N)Cc1ccccc1)[C@@H](C)CC)C(C)C)C(=O)N[C@@H](CCCCN)C(=O)N[C@@H](CC(=O)O)C(=O)N[C@@H](Cc1ccccc1)C(=O)N[C@@H](CC(C)C)C(=O)N[C@@H](CCCNC(=N)N)C(=O)N[C@@H](CC(N)=O)C(=O)N[C@@H](CC(C)C)C(=O)N[C@H](C(N)=O)C(C)C [FK-16, FKRIVQRIKDFLRNLV, reference compound] (H-FKRIVQRIKDFLRNLV-NH2; N-terminus and C-terminus assumed)
- MIC EF [1]: 3.1 ± 0 µM (≈ 6.34 µg/mL)
- MIC SA [2]: 4.67 ± 1.8 µM (≈ 9.55 µg/mL)
- MIC AB [3]: 4.67 ± 2.2 µM (≈ 9.55 µg/mL)
- MIC PA [4]: 50 µM (≈ 102 µg/mL)
- MIC ECl [5]: 12.5 ± 0 µM (≈ 25.6 µg/mL)
- MIC EC [6]: 4.67 ± 2.2 µM (≈ 9.55 µg/mL)
- MIC range against almost all / most of the tested strains [7]: 3.1 to 12.5 µM
